BindingDB's records for doi:10.1021/jm9707838 (Smithkline Beecham, 1998)

Columns and labels:
[1] = Inhibition of V-ATPase-driven proton transport in membrane vesicles derived from chicken osteoclasts (cOc).
[2] = Inhibition of V-ATPase-driven proton transport in membrane vesicles derived from bovine chromaffin granules (bCG).
[3] = Inhibition of V-ATPase-driven proton transport in membrane vesicles derived from chicken osteoclasts (cOc)
[4] = Inhibition of V-ATPase-driven proton transport in membrane vesicles derived from bovine chromaffin granules (bCG)

SMILES | IC50 [1] [µM] | IC50 [2] [µM] | IC50 [3] [µM] | IC50 [4] [µM]
CO/C1=C\C(C)=C\[C@@H](C)C(=O)[C@@H](C)C/C(C)=C/C=C/[C@H](OC)[C@@H]([C@@H](C)[C@@H](O)[C@H](C)C(=O)O)OC1=O [(2S,3R,4S)-4-((4E,6E,12E,14Z)-(2R,3S,9S,11R)-3,15-Dimethoxy-7,9,11,13-tetramethyl-10,16-dioxo-oxacyclohexadeca-4,6,12,14-tetraen-2-yl)-3-hydroxy-2-methyl-pentanoic acid] | > 10 | > 10 | – | –
COC(=O)[C@@H](C)[C@H](O)[C@H](C)[C@H]1OC(=O)/C(OC)=C/C(C)=C/[C@@H](C)C(=O)[C@@H](C)C/C(C)=C/C=C/[C@@H]1OC [(2S,3R,4S)-4-((4E,6E,12E,14Z)-(2R,3S,9S,11R)-3,15-Dimethoxy-7,9,11,13-tetramethyl-10,16-dioxo-oxacyclohexadeca-4,6,12,14-tetraen-2-yl)-3-hydroxy-2-methyl-pentanoic acid methyl ester] | > 10 | > 10 | – | –
CO/C1=C\C(C)=C\[C@@H](C)C(=O)[C@@H](C)C/C(C)=C/C=C/[C@H](OC)[C@@H]([C@@H](C)[C@@H](O)[C@H](C)[C@@]2(O)C[C@@H](C(=O)Oc3ccccc3)[C@H](C)[C@@H](C(C)C)O2)OC1=O [2-[3-(3,15-Dimethoxy-7,9,11,13-tetramethyl-10,16-dioxo-oxacyclohexadeca-4,6,12,14-tetraen-2-yl)-2-hydroxy-1-methyl-butyl]-2-hydroxy-6-isopropyl-5-methyl-tetrahydro-pyran-4-carboxylic acid phenyl ester] | – | – | > 10 | > 10
CO/C1=C\C(C)=C\[C@@H](C)[C@@H](O)[C@@H](C)C/C(C)=C/C=C/[C@H](OC)[C@@H]([C@@H](C)[C@@H](O)[C@H](C)C(=O)O)OC1=O [(2S,3R,4S)-3-Hydroxy-4-((4E,6E,12E,14Z)-(2R,3S,9S,10S,11R)-10-hydroxy-3,15-dimethoxy-7,9,11,13-tetramethyl-16-oxo-oxacyclohexadeca-4,6,12,14-tetraen-2-yl)-2-methyl-pentanoic acid] | > 10 | > 10 | – | –
